The text below walks through data of patent US20240108740A1, “THERAPEUTIC COMPOSITIONS INCLUDING SPN10 AND USES THEREOF” (Stealth BioTherapeutics Inc., priority 2022, published 2024).

In series [1] the test system is isolated mouse liver mitochondria. The series can be described thus: Example 10: uptake into isolated mitochondria. The class given is in vitro ADME. The procedure: To isolate mitochondria from mouse liver, mice will be sacrificed by decapitation. The liver will be removed and rapidly placed into chilled liver homogenization medium. The liver will be finely minced using scissors and then homogenized by hand using a glass homogenizer.
The homogenate will be centrifuged for 10 minutes at 1000×g at 4° C. The supernatant will be aspirated and transferred to polycarbonate tubes and centrifuged again for 10 minutes at 3000×g, 4° C. The resulting supernatant will be removed, and the fatty lipids on the side-wall of the tube will be removed.
The pellet will be resuspended in liver homogenate medium and the homogenization repeated twice. The final purified mitochondrial pellet will be resuspended in medium. Protein concentration in the mitochondrial preparation will be determined by the Bradford procedure.
Approximately 1.5 mg mitochondria in 400 μL buffer will be incubated with [^3H] peptide conjugates; [^3H] aromatic-cationic peptides (an equivalent molar dose of aromatic-cationic peptide based on the concentration of the aromatic-cationic peptide administered in the peptide conjugate treatment group); [^3H] […] The mitochondria will then be centrifuged and the amount of radioactivity will be determined in the mitochondrial fraction and buffer fraction. […]

Series [2] concerns Sprague-Dawley rats. The series can be described thus: Example 40: contrast-induced nephropathy in diabetic animals. The class given is in vivo, rat. As to conditions: iohexol. The method, then:
Animal model: Impaired renal function caused by diabetes is one of the major predisposing factors for contrast induced nephropathy (McCullough, et al., J. Am. Coll. Cardio., 2008, 51, 1419-1428). In this experiment, a total of 57 Sprague-Dawley rats will be fed a high-fat diet for 6 weeks, followed by the administration of low-dose streptozotocin (30 mg/kg) for a period of 9 weeks. Blood glucose, serum creatinine and Cystatin C will be measured. Animals meeting the following criteria (n=20) will advance to CIN studies: Scr>250 μM, Cystatin C>750 ng/mL and blood glucose>=[…]. […]
On day 1, serum samples will be collected and total urine protein will be measured using a Bradford assay. […] Samples will be analyzed by students t-test and differences will be considered significant at p<0.05.
Renal function: Renal function will be assessed by determining serum and urinary creatinine at baseline, 48 hours and 72 hours following dye administration. The creatinine clearance will be calculated based on the serum and urinary creatinine and urinary volume. Urinary protein concentration will be determined by Bradford Protein Assay kit (Sigma, St. Louis, MO, U.S.A.), and Cystatin C will be measured using a Westang Rat Cystatin C kit (Shanghai, P.R.C.).

Residues, ends and D or L forms follow the SMILES beside them.

Turning to `N=C(N)NCCC[C@H](NC(=O)[C@@H](N)Cc1c[nH]c2ccccc12)C(=O)N[C@@H](Cc1c[nH]c2ccccc12)C(=O)N[C@@H](CCCCN)C(N)=O` [SPN10, H-L-Trp-L-Arg-L-Trp-L-Lys-NH2] (H-WRWK-NH2), the “concentration in mitochondria compared with buffer” value in series [1] (5-30 minutes at 37° C.) is listed as “higher than in the buffer”. In series [1] (FCCP), the “amount associated with the mitochondrial pellet after FCCP” value is given as “decrease the amount”. For the same compound, the “elevated serum Cystatin C and reduced creatinine clearance following contrast dye” value in series [2] is “attenuate these effects”.
